One test relates to Oct-3/4 gene. Briefly: Oct-3/4 gene expression level by real time PCR (ES cell differentiation inhibition assay 2). Conditions: D3ES cells, 7 days. In kind it is cell-based, mouse. The method, then: For the D3ES cells prepared by the method described in (3) preparation of a mouse ES cell of Example 1, 8×10^4 cells were seeded in a 10 cm-diameter cell culture dish coated previously with a 0.1% aqueous gelatin solution to make 10 mL of the ES cell assay medium. 1 mL of the differentiation inhibiting agent A to F, which were dissolved in dimethylsulfoxide (DMSO) or culture medium or their mixture to make 40 μg/mL per each dish, or ESGRO, which was adjusted to make 10^4 unit/mL, was added, and culturing was carried out at 37° C. in 5% […] incubator for 7 days. To the culture medium was added DMSO to make the final concentration 0.1% or lower.
A total RNA was extracted from the ES cells cultured by the method described in (1) ES cell differentiation inhibition assay 2 as described above, by using ISOGEN (K.K. Nippon Gene, Japan made) by the attached method. First, the medium was removed from the dish after the culture, the cells were washed twice with 10 mL of PBS, and dissolved in 1 mL of ISOGENE. After leaving stand at room temperature for 5 minutes, the solution was collected in a 1.5 mL Eppendorf tube. 0.2 mL of chloroform (Wako Pure Chemical Industries made) was added, shaken for 15 seconds and, then, left stand at room temperature for 2 or 3 minutes. The solution was centrifuged at 4° C. at 10000 rpm for 10 minutes by using a micro centrifuge (TOMY SEIKO Corp. made). 400 μL of the supernatant was transferred to a fresh 1.5 mL Eppendorf tube, 500 μL of isopropanol (Wako Pure, Chemical Industries made) was added, and left stand at room temperature for 10 minutes, and, then, centrifuged at 4° C. at 10000 rpm for 10 minutes by using the micro centrifuge. After the supernatant was removed, 1 mL of a 70% aqueous ethanol solution was added followed by shaking and, then, centrifugation was carried out at 4° C. at 10000 rpm for about 5 minutes by using, the micro centrifuge. After the supernatant was removed, a precipitation was dried and dissolved in 30 μL of distilled water to obtain the total RNA solution.
2 μg of the thus obtained total RNA was used as a template to synthesize a cDNA according to the attached protocol by using Deoxyribonuclease I (Amplification Grade)(Invitrogen Corp. made), Oligo(dT) 12-18 primer (Invitrogen Corp. made, 18418-012) and Omniscript reverse transcriptase (QIAGEN Corp, made). Thus, a reaction solution was prepared by adding 1 μL of 10× DNaseI Reaction Buffer, 1 μL of 10× DNaseI (all were made by Invitrogen Corp.) and distilled water to 2 μg of total RNA to make 10 μL in total, and the mixture was incubated at room temperature for 10 minutes. 1 μL of 25 mM EDTA solution was added and heated at 65° C. for 10 minutes. The mixture was cooled to room temperature, and then, 2 μL of 10× Buffer RT, 2 μL of 5 mM dNTP Mix, 2 μL of Oligo(dT) 12-18 primer, 0.25 μL of RNaseOUT (Invitrogen Corp. made, 10777-019) and 1 μL of Omniscript Reverse Transcriptase were added, and RNase-free purified water was added to give the total volume of 20 μL, and the mixture was incubated at 37° C. for 60 minutes to obtain cDNA solution. A portion of the synthesized cDNA obtained in such the way was diluted 5 folds with distilled water, and 2 μL of the solution was used as the template to conduct PCR by using Light Cycler-Fast Start DNA Master SYBR Green I Kit (Roche Diagnostics Corp. made) according to the attached protocol. The expression levels of the Oct-3/4 gene and glyceraldehyde-3-phosphate dehydrogenase (GAPDH) gene as the internal standard were measured. For amplifying the Oct-3/4 gene, sense primer OCT3 up (SEQ ID No.: 1) and antisense primer Oct3 down (SEQ ID No.: 2) were used, and for amplifying the GAPDH gene, sense primer GAPDH up (SEQ ID No.: 3) and antisense primer GAPDH down (SEQ ID No.: 4) were used. The composition of the PCR reaction solution and the reaction condition will be each presented below.
(Real-time PCR tracks product formation cycle by cycle.)

The subject of another test is Nanog gene. Put plainly: Nanog gene expression level by real time PCR (ES cell differentiation inhibition assay 3). It is filed as cell-based, mouse. Conditions: D3ES cells, 4 μg/mL, 1 day, GAPDH internal standard, FIG. 7. How it is done: For the D3ES cells prepared by the method described in (3) preparation of a mouse ES cell of Example 1, 7.85×10^5 cells were seeded in a 10 cm-diameter cell culture dish coated previously with a 0.1% aqueous gelatin solution to make 10 mL of the ES cell assay medium. The differentiation inhibiting agent B of the present invention in the final concentration of 4 μg/mL or ESGRO in the final concentration of 1×10^3 unit/mL was added to each dish, and culturing was carried out at 37° C. in 5% CO2 incubator for 1 day.
The total RNA was extracted from the ES cell cultured by the method shown in (3) ES cell differentiation inhibition assay 3 as described above by using ISOGEN (K.K. Nippon Gene Corp. Japan made) by the attached method. In this method, the cell was collected in a 15 mL sterilized tube, centrifuged at 1,000 rpm for about 5 minutes by using the table centrifuge (TOMY SEIKO made) to make pellets. The supernatant was removed, the pellets were washed twice with 10 mL of PBS, and then, transferred to a 1.5 mL Eppendorf tube. The pellets were dissolved in 1 ml ISOGENE and left stand at room temperature for 5 minutes and, then, added with 0.2 mL of chloroform (Wako Pure Chemicals), shaken for 15 seconds, and left stand at room temperature for 2 or 3 minutes. Centrifugation was carried out at 4° C. at 10,000 rpm for 15 minutes by using the micro centrifuge (TOMY SEIKO made), 400 μL of the supernatant was transferred to a fresh 1.5 mL Eppendorf tube. 500 μL of isopropanol (Wako Pure Chemicals) was added and the mixture was left stand at room temperature for 10 minutes and, then, was centrifuged at 4° C. at 10,000 rpm for 10 minutes by using the micro centrifuge. The supernatant was removed and, then, 1 mL of a 70% ethanol aqueous solution was added. The mixture was shaken and then was centrifuged at 4° C. at 10,000 rpm for about 5 minutes by using the micro centrifuge. The supernatant was removed and the precipitation was dried and, then, dissolved in 30 μL of distilled water to obtain the total RNA solution.
The cDNA was synthesized by using 2 μg of the total RNA obtained by such the way as the template, using DeoxyribonucleaseI (Amplification Grade) (Invitrogen Corp. made) and SuperScript III First-Strand Synthesis System for RT-PCR (Invitrogen Corp. made, 18080-051) by the attached protocol. In this step, 1 μL of 10× DNaseI Reaction Buffer, 1 μL of 10× DNaseI (all these were of Invitrogen Corp. made) were added to 2 μg of the total RNA to give the total volume of 10 μL by adding distilled water to prepare the reaction solution, and then incubation was carried out at room temperature for 10 minutes. 1 μL of 25 mM EDTA solution was added, and the mixture was heated at 65° C. for 10 minutes and then, cooled to room temperature. 8 μL of the reaction solution was taken out, and 1 μL of […] Oligo(dT) 20 primer and 1 μL of 10 mM dNTP Mix were added, and incubation was carried out at 65° C. for 5 minutes. The reaction solution was placed on ice for 1 minute, and then 2 μL of 10× RT Buffer, 4 μL of 25 mM MgCl2, 2 μL of 0.1 M DTT, 1 μL of RNaseOUT (Invitrogen Corp. made) and 1 μL of SuperScript III RT were added for incubation at 50° C. for 50 minutes. Subsequently, incubation was carried out at 85° C. for 5 minutes, and then the mixture was left stand on ice for 1 min. […] The expression level of the Nanog gene and the glyceraldehyde-3-phosphate dehydrogenase (GAPDH) gene as the internal standard were measured. […]

In the case of `COc1cccc(N=NC(C(N)=O)=C2NC(C)(C)Cc3ccccc32)c1` [D, 2-(3,3-dimethyl-3,4-dihydro-2H-isoquinoline-1-ylidene)-2-(3-methoxy-phenylazo)-acetamide], the “expression of Oct-3/4 gene in comparison with ES cells cultured in the medium without the differentiation inhibiting agent” value in the test on Oct-3/4 gene (GAPDH internal standard, FIG. 6) is reported as “significantly promoted”. Further, the “effect of keeping the expression of the Oct-3/4 gene relative to ESGRO” value in the test with Oct-3/4 gene (compared with 1,000 units/mL of ESGRO) is “comparable with 1,000 units/mL of ESGRO”. Also, the “expression level of Nanog gene in comparison with medium without agent and medium containing 1,000 units/mL of ESGRO” value in the test with Nanog gene was “increased similarly to the differentiation inhibiting agents B”.

The values above are taken from US8883504B2, “Cell differentiation suppressing agent, method of culturing cells using the same, culture solution, and cultured cell line” (Asahi Kasei Kabushiki Kaisha, priority 2003, dated 2014).
